Source: PubChem BioAssay AID602296 (Broad Institute, 2012)
Inconclusive results are not listed. Activity calls are given as the source filed them.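 The calls were made as follows: active = fitted activation curve crossing 40% at a concentration no higher than the sample's top valid tested dose; inconclusive = flat fitted curve at 30% to 70% activation, or poor curve fit; inactive = signal decrease, flat curve within 30%, or the rest.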

Test system: NIH3T3-HGL HSF-1 response element luciferase, 48 h
Assay: sustained heat shock response element induction – cell-based, mouse, luciferase, cherry-pick, dose, confirmation (AID 602296);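 also: test compounds applied by themselves with no MG132 co-treatment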

SMILES | AC40
COC(=O)Cn1c(=O)c2c(nc3n2CC(C)CN3CCc2ccccc2)n(C)c1=O (stereo unspecified) | > 26 µM (inactive)
Cc1ccc(C(=O)n2cnnc2N)cc1 | > 26 µM (inactive)
Cc1ccc2cccc(NC(=O)C(F)(F)F)c2n1 | > 26 µM (inactive)
O=C1NC(=S)S/C1=C/c1ccc(OC(=O)c2ccco2)cc1 | 22.5 µM
CCCCOc1ccc(-c2nc(/C=N/c3nccs3)c(O)o2)cc1 | 18.4 µM
O=C(NCc1ccco1)C1CC(O)CN1C(=O)Nc1ccccc1 (stereo unspecified) | > 26 µM (inactive)
CCC1(c2ccccc2)NC(=O)N(CC(=O)NCc2ccccc2OC)C1=O (stereo unspecified) | > 26 µM (inactive)
Cc1cccc(C)c1NC(=O)COC(=O)c1cccc2c1C(=O)c1ccccc1C2=O | > 26 µM (inactive)
Cc1cc2c(cc1C)-c1nnnn1C(C)(C)C2 | > 26 µM (inactive)
CCn1nc(C)cc1C(=O)Sc1ccc(Cl)cc1Cl | 14.5 µM
C[C@@H]1C(NC(=O)c2ccccc2)CC2CC1C2(C)C (stereo partly specified) | > 26 µM (inactive)
Cc1ccc(CNC(=O)CSc2ccsc2[N+](=O)[O-])cc1 | 0.83 µM
C/C(=N\OC(=O)c1ccc(F)cc1)c1ccc(F)c(F)c1 | 24.7 µM
COC(=O)C(C)Sc1ncnc2c1nnn2-c1ccc(F)cc1 (stereo unspecified) | 5.57 µM
S=C1NC(c2ccccc2)=NCN1c1ccc(Br)cc1 | 8.41 µM
O=C(c1ccccc1Br)N1CCN(c2ccccc2)CC1 | > 26 µM (inactive)
COc1cccc(N=Nc2c(O)[nH]c(=S)[nH]c2=O)c1 | 10.1 µM
Cc1cccc(N2CCN(c3cccc(C)c3)C2c2cccnc2)c1 | > 12 µM (inactive)
O=C(CSc1ccc(Cl)cc1)N1CCN(c2c(Cl)cccc2[N+](=O)[O-])CC1 | 3.34 µM
O=C(CCC1CCCN(C(=O)c2ccc3cc[nH]c3c2)C1)NCc1ccc(F)c(F)c1 (stereo unspecified) | 14.8 µM
CC(C)(C)N(NS(=O)(=O)c1ccc(F)cc1)c1ccccc1 | > 26 µM (inactive)
O=C(Nc1cccn(Cc2c(Cl)cccc2Cl)c1=O)c1ccccc1Cl | > 26 µM (inactive)
COc1ccc(/C=C(\C#N)C(=O)Nc2cccc(C)n2)cc1 | > 26 µM (inactive)
Cn1nnc2c[n+](CC(=O)c3ccc4ccccc4c3)cc(Br)c21 | > 26 µM (inactive)
COc1ccccc1CN1CC(C(=O)NCCc2ncccc2C)CCC1=O (stereo unspecified) | 24.8 µM
Cc1ccccc1/[N+]([O-])=C/c1cccs1 | > 26 µM (inactive)

SMILES | AC40
OCC1(CCCc2ccccc2)CCN(C2CCSCC2)CC1 | > 26 µM (inactive)
CC(C)(CNC(=O)/C=C/c1ccc(F)cc1)CNC(=O)/C=C/c1ccc(F)cc1 | > 26 µM (inactive)
N#Cc1ccsc1NC(=O)CN1CCN(S(=O)(=O)c2ccc3ccccc3c2)CC1 | > 26 µM (inactive)
CCN(CC)C(=O)Oc1ccc(Br)cc1C(=O)Nc1ccc(F)cc1F | > 26 µM (inactive)
CCOC(=O)c1c(-c2ccc(C)o2)csc1NC(=O)CSc1nncs1 | 13.6 µM
CCCN(CC(=O)Nc1ccc(Cl)cc1Cl)C(=O)/C=C/c1ccco1 | 13 µM
CCCCOc1ccc(C(=O)N/N=C/c2cn[nH]c2-c2ccc(OC)c(OC)c2)cc1 | > 26 µM (inactive)
Nc1nnc(CSCc2ccccc2Cl)s1 | > 26 µM (inactive)
COc1cccc(CNC(=O)Cn2nc(C)c([N+](=O)[O-])c2C)c1 | > 26 µM (inactive)
COc1ccc(NC(=O)NNC(=O)c2cc3occc3n2C)c(OC)c1 | > 26 µM (inactive)
CSc1c(C#N)c(N)nc2sc(C(=O)c3ccccc3)c(N)c12 | 5.48 µM
CC(=O)N=c1sccn1CC(=O)c1ccc([N+](=O)[O-])cc1 | > 26 µM (inactive)
CCOC(=O)c1sc(C)c2c1NC(C)(c1cccc3ccccc13)NC2=O (stereo unspecified) | > 26 µM (inactive)
COC(=O)c1ccc(CSc2ncnc3c2oc2ccccc23)o1 | > 26 µM (inactive)
Cc1ccccc1CC(=O)NC1CCCc2ccccc21 (stereo unspecified) | > 26 µM (inactive)
Cc1ccc(-n2c(SCC(=O)Nc3cc(S(=O)(=O)N4CCOCC4)ccc3Cl)nc3ccccc3c2=O)cc1 | 16 µM
O=C(NNc1c(Cl)cccc1Cl)C1CCC1 | 23.5 µM
CCOc1ccccc1-c1noc(CCCC(=O)NC2CCCCC2)n1 | > 26 µM (inactive)
COc1cccc(/C=N/NC(=S)NC2CC3CC2C2C=CCC32)c1O (stereo unspecified) | > 26 µM (inactive)
Cc1noc(NS(=O)(=O)c2ccc(NC(=O)c3oc4ccc(F)cc4c3C)cc2)c1C | > 26 µM (inactive)
Cc1nnc(Sc2nc3c(c(=O)n(C)c(=O)n3C)n2Cc2ccccc2Cl)s1 | > 26 µM (inactive)
COc1cc(C2Nc3ccc4ncccc4c3C3=C2C(=O)CCC3)cc(OC)c1OC (stereo unspecified) | 5.44 µM
O=[N+]([O-])c1cc([N+](=O)[O-])c(Oc2c(F)cccc2F)cc1NN1CCCCC1 | > 26 µM (inactive)
S=C(Nc1ccc(Cl)cc1)Nc1cccc2cnccc12 | > 26 µM (inactive)
Cc1cccc(N=Nc2c(C)c(C#N)c(O)[nH]c2=O)c1 | > 26 µM (inactive)
CCCNC(=O)NC(=O)CSc1cccc(C(F)(F)F)c1 | 13.5 µM

SMILES | AC40
O=c1c2ccccc2[nH]c(=S)n1CCC1=CCCCC1 | 11.3 µM
COc1cc2[nH]c(=S)n(Cc3ccco3)c(=O)c2cc1OC | > 26 µM (inactive)
COc1ccc(-c2c(C)c3cc(O)ccc3oc2=O)cc1OC | > 26 µM (inactive)
Cn1c(CCC(=O)OCC(=O)Nc2ccc(Oc3ccccc3)cc2)nc(=O)c2ccccc21 | > 26 µM (inactive)
Cc1ccc(NN2C(=O)C=C(c3ccccc3)C2=O)cc1 | 7.33 µM
COc1ccc(C2C3=C(CCCC3=O)N(CC(=O)O)C3=C2C(=O)CCC3)cc1Cl | > 26 µM (inactive)
CCOP(=O)(C(NC(=O)c1ccccc1Cl)=C(Cl)Cl)c1ccccc1 (stereo unspecified) | > 26 µM (inactive)
CCOc1cc(C(=S)N2CCOCC2)ccc1OS(=O)(=O)c1ccc(C)cc1 | > 26 µM (inactive)
COc1cccc(CN2CC(C(=O)NCc3ccc(C)o3)CCC2=O)c1 (stereo unspecified) | > 26 µM (inactive)
COc1cc(OC)cc(-c2nnc(Sc3ccc(C=O)cc3[N+](=O)[O-])o2)c1 | > 26 µM (inactive)
N#C/C(=C\c1ccc(OCc2ccc(Cl)cc2)cc1)C(=O)Nc1cccc(C(=O)O)c1 | 2.68 µM
Brc1cnc2nc(SC/C=C/c3ccccc3)[nH]c2c1 | 20.8 µM
COC(=O)c1cc(OC)c(OC)cc1NC(=S)NC(=O)c1ccco1 | > 26 µM (inactive)
O[C@@H]1C2CCCC1[C@]1(O)CCCCC1C2 (stereo partly specified) | > 26 µM (inactive)
CCOC(=O)c1nnsc1Nc1ccc(C)c(C)c1 | 5.31 µM
O=C(CC1(O)C(=O)Nc2ccc(Br)cc21)c1ccc2c(c1)OCO2 (stereo unspecified) | > 26 µM (inactive)
COc1ccc(CCNc2ncnc3c2c(C)c(C)n3CCO)cc1OC | > 26 µM (inactive)
CC1CCN(c2ccc(C=O)o2)CC1 | > 26 µM (inactive)
COc1cc(/C=N/N2C(=O)c3ccccc3NC2(C)c2cccc([N+](=O)[O-])c2)cc(Br)c1O (stereo unspecified) | > 26 µM (inactive)
Cc1ccnc(N2CCCC(C(=O)Nc3ccc(C)c(C)c3)C2)n1 (stereo unspecified) | > 26 µM (inactive)
Cc1nc2ccccc2nc(C)c1=NOCc1ccccc1Cl | 3.97 µM
Cc1ccc(Nc2c(N)c(=O)oc3ccccc23)cc1 | > 26 µM (inactive)
CCCc1cc(=O)[nH]c(SCC(=O)Nc2ccc(C)cc2)n1 | > 26 µM (inactive)
Clc1ccc(SCc2csc(N3CCOCC3)n2)cc1 | > 26 µM (inactive)
